Data from PubChem BioAssay AID248 (DTP/NCI, 2004).
Values joined by “and” are separate entries in the source; they are usually repeats but may differ in a detail not shown here. Equal values may be shown once. Toxic doses and inconclusive results are not listed. Rule as the data show it: active = T/C of 150% or more; inactive = T/C below 125%.

Tested on: L1210 leukemia ip in BDF1 mice, survival T/C
Assay: NCI In Vivo Anticancer Drug Screen. Data for tumor model L1210 Leukemia (intraperitoneal) in B6D2F1 (BDF1) mice
Details: endpoint: mean survival time, higher = longer survival
Summary of the method: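 Tumor cells were implanted, animals were treated, and survival was followed. The result divides the treated measurement by the vehicle-control measurement.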

Measured: T/C

CC[C@@]1(O)C(=O)OCc2c1cc1n(c2=O)Cc2cc3ccccc3nc2-1
active: dose: 0.25 mg/kg/injection, schedule: Q#A X Z (ip), vehicle: saline 154 % of control | dose: 0.5 mg/kg/injection, schedule: Q01DX Z (ip), vehicle: carboxymethylcellulose (CMC) 163 % of control | dose: 0.6 mg/kg/injection, schedule: Q01DX Z (ip), vehicle: water 156 % of control | dose: 1.0 mg/kg/injection, schedule: Q01DX010 (ip), vehicle: saline 153 % of control | dose: 1.0 mg/kg/injection, schedule: Q01DX Z (ip), vehicle: carboxymethylcellulose (CMC) 166 % of control | dose: 1.0 mg/kg/injection, schedule: Q01DX Z (ip), vehicle: saline 158 % of control | dose: 1.0 mg/kg/injection, schedule: Q01DX Z (ip), vehicle: water 171 % of control | dose: 1.0 mg/kg/injection, schedule: Q#A X Z (ip), vehicle: saline 185 % of control | dose: 1.6 mg/kg/injection, schedule: Q01DX Z (ip), vehicle: saline 196 % of control | dose: 3.0 mg/kg/injection, schedule: Q03DX Z (ip), vehicle: saline 155 % of control | dose: 4.5 mg/kg/injection, schedule: Q01DX Z (sc), vehicle: saline 175 % of control | dose: 6.0 mg/kg/injection, schedule: Q03DX Z (ip), vehicle: saline 152 % of control | dose: 6.5 mg/kg/injection, schedule: Q01DX006 (iv), vehicle: saline 170 % of control | dose: 6.5 mg/kg/injection, schedule: Q01DX Z (sc), vehicle: saline 157 % of control | dose: 8.6 mg/kg/injection, schedule: Q03DX Z (ip), vehicle: saline 194 % of control | dose: 9.5 mg/kg/injection, schedule: Q01DX006 (iv), vehicle: saline 157 % of control | dose: 16.0 mg/kg/injection, schedule: Q07DX Z (ip), vehicle: saline 158 % of control and 213 % of control | dose: 24.0 mg/kg/injection, schedule: Q07DX Z (ip), vehicle: saline 158 % of control | dose: 2000.0 micrograms/kg/injection, schedule: Q01DX Z (ip), vehicle: saline 222 % of control | dose: 4000.0 micrograms/kg/injection, schedule: Q01DX Z (ip), vehicle: saline 205 % of control
116 % of control and 202 % of control: dose: 2.5 mg/kg/injection, schedule: Q01DX001 (ip), vehicle: saline
inactive: dose: 0.05 mg/kg/injection, schedule: Q01DX Z (ip), vehicle: carboxymethylcellulose (CMC) 94 % of control | dose: 0.1 mg/kg/injection, schedule: Q01DX Z (ip), vehicle: carboxymethylcellulose (CMC) 97 % of control | dose: 0.12 mg/kg/injection, schedule: Q01DX009 (ip), vehicle: saline 105 % of control and 108 % of control | dose: 0.12 mg/kg/injection, schedule: Q#A X Z (ip), vehicle: saline 122 % of control | dose: 0.13 mg/kg/injection, schedule: Q01DX Z (ip), vehicle: water 105 % of control | dose: 0.2 mg/kg/injection, schedule: Q01DX Z (ip), vehicle: saline 118 % of control | dose: 0.22 mg/kg/injection, schedule: Q01DX Z (ip), vehicle: water 103 % of control | dose: 0.22 mg/kg/injection, schedule: Q03DX Z (ip), vehicle: saline 103 % of control | dose: 0.25 mg/kg/injection, schedule: Q01DX006 (iv), vehicle: saline 103 % of control | dose: 0.25 mg/kg/injection, schedule: Q01DX009 (ip), vehicle: saline 94 % of control | dose: 0.25 mg/kg/injection, schedule: Q01DX Z (im), vehicle: saline 108 % of control | dose: 0.25 mg/kg/injection, schedule: Q01DX Z (sc), vehicle: saline 113 % of control | dose: 0.25 mg/kg/injection, schedule: Q## X Z (ip), vehicle: saline 106 % of control | dose: 0.33 mg/kg/injection, schedule: Q03DX Z (ip), vehicle: saline 111 % of control | dose: 0.36 mg/kg/injection, schedule: Q01DX Z (ip), vehicle: water 116 % of control | dose: 0.5 mg/kg/injection, schedule: Q01DX001 (ip), vehicle: saline 107 % of control | dose: 0.5 mg/kg/injection, schedule: Q01DX006 (iv), vehicle: saline 116 % of control | dose: 0.5 mg/kg/injection, schedule: Q01DX009 (ip), vehicle: saline 111 % of control | dose: 0.5 mg/kg/injection, schedule: Q01DX Z (oral), vehicle: saline 120 % of control | dose: 0.5 mg/kg/injection, schedule: Q01DX Z (sc), vehicle: saline 118 % of control | dose: 0.5 mg/kg/injection, schedule: Q03DX Z (ip), vehicle: saline 108 % of control | dose: 0.75 mg/kg/injection, schedule: Q01DX009 (ip), vehicle: saline 94 % of control and 95 % of control | dose: 0.75 mg/kg/injection, schedule: Q03DX Z (ip), vehicle: saline 114 % of control | dose: 1.0 mg/kg/injection, schedule: Q01DX001 (ip), vehicle: saline 107 % of control | dose: 1.0 mg/kg/injection, schedule: Q01DX006 (iv), vehicle: saline 114 % of control | dose: 1.0 mg/kg/injection, schedule: Q01DX009 (ip), vehicle: saline 97 % of control | dose: 1.0 mg/kg/injection, schedule: Q01DX010 (iv), vehicle: saline 117 % of control | dose: 1.0 mg/kg/injection, schedule: Q01DX Z (oral), vehicle: saline 109 % of control | dose: 1.25 mg/kg/injection, schedule: Q04DX003 (ip), vehicle: Klucel (hydroxypropylcellulose) (HPC) 113 % of control | dose: 1.5 mg/kg/injection, schedule: Q03DX Z (ip), vehicle: saline 120 % of control | dose: 1.5 mg/kg/injection, schedule: Q#A X Z (ip), vehicle: saline 104 % of control | dose: 2.0 mg/kg/injection, schedule: Q01DX001 (ip), vehicle: saline 100 % of control and 124 % of control | dose: 2.0 mg/kg/injection, schedule: Q01DX006 (iv), vehicle: saline 109 % of control | dose: 2.0 mg/kg/injection, schedule: Q01DX010 (ip), vehicle: saline 93 % of control | dose: 2.0 mg/kg/injection, schedule: Q01DX Z (im), vehicle: saline 94 % of control and 118 % of control | dose: 2.0 mg/kg/injection, schedule: Q01DX Z (ip), vehicle: saline 122 % of control | dose: 2.0 mg/kg/injection, schedule: Q01DX Z (oral), vehicle: saline 120 % of control | dose: 2.0 mg/kg/injection, schedule: Q07DX Z (ip), vehicle: saline 124 % of control | dose: 2.0 mg/kg/injection, schedule: Q## X Z (ip), vehicle: saline 98 % of control | dose: 2.25 mg/kg/injection, schedule: Q#A X Z (ip), vehicle: saline 93 % of control | dose: 3.0 mg/kg/injection, schedule: Q01DX006 (iv), vehicle: saline 120 % of control | dose: 3.0 mg/kg/injection, schedule: Q01DX Z (oral), vehicle: saline 120 % of control | dose: 3.2 mg/kg/injection, schedule: Q01DX Z (ip), vehicle: saline 121 % of control | dose: 4.0 mg/kg/injection, schedule: Q01DX001 (ip), vehicle: saline 105 % of control | dose: 4.0 mg/kg/injection, schedule: Q01DX010 (iv), vehicle: saline 108 % of control | dose: 4.0 mg/kg/injection, schedule: Q01DX Z (ip), vehicle: saline 97 % of control | dose: 4.0 mg/kg/injection, schedule: Q01DX Z (oral), vehicle: saline 118 % of control and 119 % of control | dose: 4.5 mg/kg/injection, schedule: Q01DX006 (iv), vehicle: saline 122 % of control | dose: 4.5 mg/kg/injection, schedule: Q01DX Z (im), vehicle: saline 117 % of control | dose: 4.8 mg/kg/injection, schedule: Q01DX Z (ip), vehicle: saline 95 % of control | dose: 5.0 mg/kg/injection, schedule: Q04DX003 (ip), vehicle: Klucel (hydroxypropylcellulose) (HPC) 96 % of control | dose: 8.0 mg/kg/injection, schedule: Q01DX001 (ip), vehicle: saline 109 % of control | dose: 10.0 mg/kg/injection, schedule: Q04DX003 (ip), vehicle: Klucel (hydroxypropylcellulose) (HPC) 110 % of control | dose: 13.0 mg/kg/injection, schedule: Q03DX Z (ip), vehicle: saline 124 % of control | dose: 19.0 mg/kg/injection, schedule: Q03DX Z (ip), vehicle: saline 93 % of control | dose: 20.0 mg/kg/injection, schedule: Q04DX003 (ip), vehicle: Klucel (hydroxypropylcellulose) (HPC) 117 % of control | dose: 24.0 mg/kg/injection, schedule: Q01DX001 (ip), vehicle: saline 111 % of control | dose: 35.0 mg/kg/injection, schedule: Q01DX001 (ip), vehicle: saline 122 % of control | dose: 50.0 mg/kg/injection, schedule: Q07DX Z (ip), vehicle: saline 100 % of control | dose: 125.0 micrograms/kg/injection, schedule: Q01DX001 (ip), vehicle: saline 103 % of control | dose: 125.0 micrograms/kg/injection, schedule: Q01DX Z (ip), vehicle: saline 107 % of control | dose: 156.0 micrograms/kg/injection, schedule: Q01DX001 (ip), vehicle: saline 107 % of control | dose: 187.0 micrograms/kg/injection, schedule: Q01DX001 (ip), vehicle: saline 103 % of control | dose: 250.0 micrograms/kg/injection, schedule: Q01DX Z (ip), vehicle: saline 101 % of control | dose: 281.0 micrograms/kg/injection, schedule: Q01DX001 (ip), vehicle: saline 105 % of control | dose: 310.0 micrograms/kg/injection, schedule: Q01DX001 (ip), vehicle: saline 101 % of control | dose: 421.0 micrograms/kg/injection, schedule: Q01DX001 (ip), vehicle: saline 116 % of control | dose: 500.0 micrograms/kg/injection, schedule: Q01DX Z (ip), vehicle: saline 107 % of control | dose: 620.0 micrograms/kg/injection, schedule: Q01DX001 (ip), vehicle: saline 107 % of control | dose: 1250.0 micrograms/kg/injection, schedule: Q01DX001 (ip), vehicle: saline 110 % of control
